Results on six molecules are retold here after patent US8399419B2, “Antibacterial aminoglycoside analogs” (Achaogen, Inc., priority 2008, dated 2013).

Converted amounts (≈) assume the structure as drawn.

Experiment [1] deals with P. aeruginosa ATCC 27853. Description: MIC assay (CLSI broth microdilution), APAE001. In kind it is cell-based. Conditions: Pseudomonas aeruginosa; APAE001 is ATCC27853 (P. aeruginosa); Mueller Hinton Broth, 35 C, 20 hours. As to the method:
(§1) Minimum inhibitory concentrations (MIC) were determined by reference Clinical and Laboratory Standards Institute (CLSI) broth microdilution methods per M7-A7 [2006]. Quality control ranges utilizing E. coli ATCC 25922, P. aeruginosa ATCC 27853 and S. aureus ATCC 29213, and interpretive criteria for comparator agents were as published in CLSI M100-S17 [2007]. Briefly, serial two-fold dilutions of the test compounds were prepared at 2× concentration in Mueller Hinton Broth. The compound dilutions were mixed in 96-well assay plates in a 1:1 ratio with bacterial inoculum. The inoculum was prepared by suspension of a colony from an agar plate that was prepared the previous day. Bacteria were suspended in sterile saline and added to each assay plate to obtain a final concentration of 5×10^5 CFU/mL. The plates were incubated at 35 C for 20 hours in ambient air.

Experiment [2] relates to E. coli ATCC 25922. Description: MIC assay (CLSI broth microdilution), AECO001. The class given is cell-based. The note with it: Escherichia coli; AECO001 is ATCC25922 (E. coli); Mueller Hinton Broth, 35 C, 20 hours. As for the experimental part: as §1
(Dilution methods test growth across graded concentrations, often in twofold steps.)

As to `NC[C@@H]1CC[C@@H](N)[C@@H](O[C@H]2[C@H](O[C@@H]3O[C@H](CO)[C@@H](O[C@H]4O[C@@H](CN)CC[C@H]4N)[C@H]3O)[C@@H](O)[C@H](NC(=O)[C@@H](O)[C@H](F)CN)C[C@@H]2N)O1` [Example 24/Compound 8, 3′,4′,3′″,4′″-tetra-deoxy-1-(4-amino-3(R)-fluoro-2(R)-hydroxy-butyryl)-neomycin], the minimal inhibitory concentration (MIC) in experiment [1] and in experiment [2] was not above 1 µg/mL each time.

Turning to `NC[C@@H]1CC[C@@H](N)[C@@H](O[C@H]2[C@H](O[C@@H]3O[C@H](CO)[C@@H](O[C@H]4O[C@@H](CN)CC[C@H]4N)[C@H]3O)[C@@H](O)[C@H](NC(=O)[C@H](O)[C@@H](F)CN)C[C@@H]2N)O1` [Example 25/Compound 8, 3′,4′,3′″,4′″-tetra-deoxy-1-(4-amino-3(S)-fluoro-2(S)-hydroxy-butyryl)-neomycin], the MIC in experiment [1] and in experiment [2] was not above 1 µg/mL throughout.

Turning to `NC[C@@H]1CC[C@@H](N)[C@@H](O[C@H]2[C@H](O[C@@H]3O[C@H](CO)[C@@H](O[C@H]4O[C@@H](CN)CC[C@H]4N)[C@H]3O)[C@@H](O)[C@H](NC(=O)[C@@H](O)C(F)(F)CN)C[C@@H]2N)O1` [Example 26/Compound 6, 3′,4′,3′″,4′″-tetra-deoxy-1-(4-amino-3,3-bisfluoro-2(R)-hydroxy-butyryl)-neomycin], the minimum inhibitory concentration (MIC) in experiment [1] and in experiment [2] was not above 1 µg/mL throughout.

Regarding `NC[C@@H]1CC[C@@H](N)[C@@H](O[C@H]2[C@H](O[C@@H]3O[C@H](CO)[C@@H](O[C@H]4O[C@@H](CN)CC[C@H]4N)[C@H]3O)[C@@H](O)[C@H](NC(=O)[C@H](O)C(F)(F)CN)C[C@@H]2N)O1` [Example 27/Compound 6, 3′,4′,3′″,4′″-tetra-deoxy-1-(4-amino-3,3-bisfluoro-2(S)-hydroxy-butyryl)-neomycin], the MIC in experiment [1] and in experiment [2] was 1 to 16 µg/mL (≈ 1.45 to 23.3 µM) in each case.

In the case of `NC[C@@H]1CC[C@@H](N)[C@@H](O[C@H]2[C@H](O[C@@H]3O[C@H](CO)[C@@H](O[C@H]4O[C@@H](CN)CC[C@H]4N)[C@H]3O)[C@@H](O)[C@H](NC(=O)[C@@H](O)[C@@H](O)CN)C[C@@H]2N)O1` [Example 28/Compound 6, 3′,4′,3′″,4′″-tetra-deoxy-1-(4-amino-3,2-(S,S)-bis-hydroxy-butyryl)-neomycin], the MIC in experiment [1] and in experiment [2] was not above 1 µg/mL in each case.

On to `NC[C@@H]1CC[C@@H](N)[C@@H](O[C@H]2[C@H](O[C@@H]3O[C@H](CO)[C@@H](O[C@H]4O[C@@H](CN)CC[C@H]4N)[C@H]3O)[C@@H](O)[C@H](NC(=O)[C@H](O)[C@H](O)CN)C[C@@H]2N)O1` [Example 29/Compound 6, 3′,4′,3′″,4′″-tetra-deoxy-1-(4-amino-3,2-(R,R)-bis-hydroxy-butyryl)-neomycin], for which the MIC in experiment [1] is not above 1 µg/mL; in experiment [2], 1 to 16 µg/mL (≈ 1.5 to 24 µM).

One may read the MIC as the lowest concentration that inhibits growth of the organism.
